In US5712297A, “Piperdine compounds and their preparation and use” (Novo Nordisk A/S, priority 1989, dated 1998):
Structures can show the parent of a compound that is named as a salt.

Target: muscarinic acetylcholine receptors
Assay: Inhibition of specific binding of 3H-Oxotremorine-M (3H-Oxo)
Set-up: species or system rat (male Wistar
Settings: rat cortex; 3H-Oxotremorine 1.0 nM; 20 mM Hepes pH 7.4; 30 min at 25° C.
Procedure: The pharmacological properties of the compounds of the present invention (Formula I) can be illustrated by determining their capability to inhibit the specific binding of ^3 H-Oxotremorine-M (^3 H-Oxo).
^3 H-Oxo labels muscarinic receptors in the CNS (with a preference for agonist domaines of the receptors). Three different sites are labelled by 3H-Oxo. These sites have affinity of 1.0, 20 and 3000 nM, respectively. Using the present experimental conditions only the high and medium affinity sites are determined. The inhibitory effects of compounds on ^3 H-Oxo binding reflects the affinity for muscarinic acetylcholine receptors.
All preparations are performed at 0°-4° C. unless otherwise indicated. Fresh cortex (0.1-1 g) from male Wistar rats (150-250 g) is homogenized for 5-10 s in 10 ml 20 mM Hepes pH: 7.4, with an Ultra-Turrax homogenizer. The homogenizer is rinsed with 10 ml of buffer and the combined suspension centrifuged for 15 min at 40,000×g. The pellet is washed three times with buffer. In each step the pellet is homogenized as before in 2×10 ml of buffer and centrifuged for 10 min at 40,000×g. The final pellet is homogenized in 20 mM Hepes pH: 7.4 (100 ml per g of original tissue) and used for binding assay. Aliquots of 0.5 ml is added 25 μl of test solution and 25 μl of ^3 H-Oxotremorine (1.0 nM, final concentration) mixed and incubated for 30 min at 25° C. Non-specific binding is determined in triplicate using Arecoline (1 μg/ml, final concentration) as the test substance. After incubation samples are added 5 ml of ice-cold buffer and poured directly onto Whatman GF/C glass fiber filters under suction and immediately washed 2 times with 5 ml of ice-cold buffer. The amount of radioactivity on the filters are determined by conventional liquid scintillation counting. Specific binding is total binding minus non-specific binding. Test substances are dissolved in 10 ml water (if necessary heated on a steam-bath for less than 5 minutes) at a concentration of 2.2 mg/ml. 25-75% inhibition of specific binding must be obtained before calculation of IC50.
The test value will be given as IC50 (the concentration (ng/ml) of the test substance which inhibits the specific binding of ^3 H-Oxo by 50%). [formula] where Co is specific binding in control assays and Cx is the specific binding in the test assay. (The calculations assume normal mass-action kinetics).

SMILES	Inhibition in vitro OXO BINDING (IC50: concentration which inhibits the specific binding of 3H-Oxo by 50%)
COCCOc1nsnc1C1=CCCN(C)C1.O=C(O)C(=O)O [Compound 15, 1,2,5,6-tetrahydro-3-(4-methoxyethoxy-1,2,5-thiadiazol-3-yl)-1-methylpyridine oxalate]	0.6 ng/mL
CN1CCC=C(c2nsnc2Cl)C1.O=C(O)C(=O)O [Compound 16, 3-(4-chloro-1,2,5-thiadiazol-3-yl)-1,2,5,6-tetrahydro-1-methylpyridine oxalate]	3.3 ng/mL
Cl.Clc1nsnc1C1=CCCNC1 [Compound 17, 3-(4-chloro-1,2,5-thiadiazol-3-yl)-1,2,5,6-tetrahydropyridine hydrochloride]	19.0 ng/mL
CCCCOc1nsnc1C1=CCCNC1.O=C(O)C(=O)O [Compound 18, 3-(4-butoxy-1,2,5-thiadiazol-3-yl)-1,2,5,6-tetrahydropyridine oxalate]	3.6 ng/mL
CCN1CCC=C(c2nsnc2Cl)C1.O=C(O)C(=O)O [Compound 19, 3-(4-chloro-1,2,5-thiadiazol-3-yl)-1-ethyl-1,2,5,6-tetrahydropyridine oxalate]	92 ng/mL
CCOc1nsnc1C1=CCCN(CC)C1.O=C(O)C(=O)O [Compound 20, 3-(4-ethoxy-1,2,5-thiadiazol-3-yl)-1-ethyl-1,2,5,6-tetrahydropyridine oxalate]	5.9 ng/mL
CCCCCCCOc1nsnc1C1=CCCN(C)C1.O=C(O)C(=O)O [Compound 21, 3-(4-heptyloxy-1,2,5-thiadiazol-3-yl)-1,2,5,6-tetrahydro-1-methylpyridine oxalate]	2.4 ng/mL
CC#CCCOc1nsnc1C1=CCCN(C)C1.O=C(O)C(=O)O [Compound 22, 3-(4-(3-pentynyloxy)-1,2,5-thiadiazol-3-yl)-1,2,5,6-tetrahydro-1-methylpyridine oxalate]	0.4 ng/mL
C=CCCCOc1nsnc1C1=CCCN(C)C1.O=C(O)C(=O)O [Compound 23, 3-(4-(4-pentenyloxy)-1,2,5-thiadiazol-3-yl)-1,2,5,6-tetrahydro-1-methylpyridine oxalate]	0.3 ng/mL
C=CCOc1nsnc1C1=CCCN(C)C1.O=C(O)C(=O)O [Compound 24, 3-(4-(2-propenyloxy)-1,2,5-thiadiazol-3-yl)-1,2,5,6-tetrahydro-1-methylpyridine oxalate]	0.4 ng/mL
CCCCCCCCOc1nsnc1C1=CCCN(C)C1 [Compound 25, 3-(4-octyloxy-1,2,5-thiadiazol-3-yl)-1,2,5,6-tetrahydro-1-methylpyridineoxalate]	12 ng/mL
CCC#CCCOc1nsnc1C1=CCCN(C)C1.O=C(O)C(=O)O [Compound 26, 3-(4-(3-hexynyloxy) -1,2,5-thiadiazol-3-yl)-1,2,5,6-tetrahydro-1-methylpyridine oxalate]	0.4 ng/mL
CC(C)=CCOc1nsnc1C1=CCCN(C)C1.O=C(O)C(=O)O [Compound 27, 3-(4-(3-methyl-2-butenyloxy)-1,2,5-thiadiazol-3-yl)-1,2,5,6-tetrahydro-1-methylpyridine oxalate]	0.8 ng/mL
C=CC(C)Oc1nsnc1C1=CCCN(C)C1 (centres unmarked) [Compound 28, 3-(4-(3-butenyl-2-oxy)-1,2,5-thiadiazol-3-yl)-1,2,5,6-tetrahydro-1-methylpyridine oxalate]	1.3 ng/mL
